Structures are written as SMILES.

Data set [1] relates to HCT116 (colorectal carcinoma). The data set is described as follows: Cytotoxic MTS assay, HCT116. Format: cell-based, human. The method in brief:
(§1)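 Cells seeded at 25,000–35,000 cells/mL were exposed to compounds (four-fold dilutions from DMSO) for 72 h at 37 °C, 5% CO2. Viability was read by MTS metabolic staining, OD at 490 nm after 1–4 h, and IC50 taken as the concentration giving 50% growth inhibition.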
A general note: Tetrazolium dyes change colour on reduction, which living cells bring about.

The subject of data set [2] is BJ (noncancerous human fibroblasts from foreskin). The data set is described as follows: Cytotoxic MTS assay, BJ. Format: cell-based. The method in brief:
as §1

Data set [3] has as its system MRC-5LD (noncancerous human lung fibroblasts doxorubicin-resistant). The data set is described as follows: Cytotoxic MTS assay, MRC-5LD. Format: cell-based. The method, boiled down: as §1
In data set [4] the test system is BJLD (human lung fibroblast doxorubicin-resistant). The data set is described as follows: Cytotoxic MTS assay, BJLD. Format: cell-based. The method, boiled down: as §1
In data set [5] the test system is K562-TAX (chronic myeloid leukemia paclitaxel-resistant subline). The data set is described as follows: Cytotoxic MTS assay, K562-TAX. Format: cell-based, human. The method, boiled down: as §1
Data set [6] has as its system CCRF-CEM lymphoblasts. The data set is described as follows: BrDU incorporation analysis (DNA synthesis). To be noted: 24 h, 1 × IC50 (first value of cell). Format: cell-based, human.
Data set [7] relates to CCRF-CEM lymphoblasts. The data set is described as follows: Mitosis, pH3Ser10 antibody labeling, flow cytometry. To be noted: 24 h. Format: cell-based, human. As to the method: The effect of compounds on cell cycle distribution was determined to gain insights into the mechanism of its antiproliferative activity. […] For example, as compared with control, the percentage of cells in G2/M phases was increased by treatment with 5 × IC50 μM of compounds for 24 h (Table 4). […] As shown in (Table 4), there was a marked increase in the sub-G1 from 2.91 in untreated cells. 5-Bromo-2-deoxyuridine (BrDU) is incorporated into newly synthesized DNA, and 5-bromouridine (BrU) pulse labeling is therefore commonly used as a proliferation marker. Low BrDU and BrU incorporation into the DNA or RNA, respectively, of treated cells with all compounds at 5 × IC50 reflected inhibition of DNA and RNA synthesis, indicating irreversible apoptotic changes. The percentage of […] cells incorporating 5-bromouridine is proportional to the transcriptional activity of CCRF-CEM cells.
CCRF-CEM cells were seeded at a density of 1 × 10^6 cells per one mL in 6-well plates (TTP) and were cultivated with compounds at concentrations corresponding to 1 × or 5 × IC50 value. Together with the compounds-treated cells, a vehicle-treated sample was harvested at the same time point. After 24 h, the cells were washed with cold phosphate-buffered saline (PBS) and fixed in 70% ethanol added dropwise and stored overnight at −20 °C. Afterward, cells were washed in hypotonic citrate buffer, treated with RNase (50 µg mL^−1), and stained with propidium iodide. Flow cytometry using a 488 nm single beam laser (Becton Dickinson) was used for measurement. The cell cycle was analyzed by the software ModFitLT (Verity), and apoptosis was measured in a logarithmic model expressing the percentage of the particles with propidium content lower than cells in the G0/G1 phase (<G1) of the cell cycle. Half of the sample was used for pH3Ser10 antibody (Sigma) labeling and subsequent flow cytometry analysis of the cells in mitosis.

The mark [8] stands for this setting: 5 × IC50 (second value of cell).

By IC50 is commonly meant the concentration at which inhibition is half-maximal. In the case of `COc1ccc(C(=O)OCCS(=O)(=O)c2cc[n+]([O-])c3cc(Cl)ccc23)cc1` [Compound 63, 2-[(N-Oxide 7-chloroquinolin-4-yl)sulfonyl]ethyl-4-methoxybenzoate], the IC50 was determined as 16.2 µM in data set [1]; 23.9 µM in data set [2]; 2.91 µM in data set [3]; 12.1 µM in data set [4]; 4.71 µM in data set [5]. In addition, in data set [6], the “DNA Synthesis (% positive of cells)” value was found to be 41.06%. For the same molecule, the results for the “M (Mitosis Phospho-Histone3 (Ser10)), % of Total Cellular Populations” value (“M (Mitosis Phospho-Histone3 (Ser10)), %” below) in data set [7] (1 × IC50 (first value of cell)) and in data set [7] (setting [8]) were 1.66% and 1.53%, respectively.
Take `COc1ccc(OC)c(C(=O)OCCS(=O)(=O)c2cc[n+]([O-])c3cc(Cl)ccc23)c1` [Compound 65, 2-[(N-Oxide 7-chloroquinolin-4-yl)sulfonyl]ethyl-2,5-dimethoxybenzoate]: the IC50 in data set [1] is 8.83 µM; in data set [2], 22.2 µM; in data set [3], 2.02 µM; in data set [4], 9.68 µM; in data set [5], 6.65 µM. Moreover, the “DNA Synthesis (% positive of cells)” value in data set [6] was determined as 36.82%. In addition, the results for the “M (Mitosis Phospho-Histone3 (Ser10)), %” value in data set [7] (1 × IC50 (first value of cell)) and in data set [7] (setting [8]) were 1% and 1.66%, respectively.
With `COc1cc(OC)c(C(=O)OCCS(=O)(=O)c2cc[n+]([O-])c3cc(Cl)ccc23)cc1OC` [Compound 66, 2-[(N-Oxide 7-chloroquinolin-4-yl)sulfonyl]ethyl-2,4,5-trimethoxybenzoate], the IC50 was 9.22 µM in data set [1]; 21.2 µM in data set [2]; 2.3 µM in data set [3]; 11 µM in data set [4]; 6.25 µM in data set [5]. Also, in data set [6], the “DNA Synthesis (% positive of cells)” value was 39.87%. For the same molecule, the “M (Mitosis Phospho-Histone3 (Ser10)), %” value in data set [7] (1 × IC50 (first value of cell)) is given as 1.64%; in data set [7] (setting [8]), 2.29%.
Turning to `COc1ccccc1C(=O)OCCS(=O)(=O)c1cc[n+]([O-])c2cc(Cl)ccc12` [Compound 68, 2-[(N-Oxide 7-chloroquinolin-4-yl)sulfonyl]ethyl-2-methoxybenzoate], the IC50 amounted to 5.25 µM in data set [1]; 24.6 µM in data set [2]; 4.17 µM in data set [3]; 10.1 µM in data set [4]; 4.63 µM in data set [5]. Further, the “DNA Synthesis (% positive of cells)” value in data set [6] was 41.27%. Further, the “M (Mitosis Phospho-Histone3 (Ser10)), %” value is 1.73% in data set [7] (1 × IC50 (first value of cell)) and 2.11% in data set [7] (setting [8]).
Turning to `COc1ccc(C(=O)OCCS(=O)(=O)c2cc[n+]([O-])c3cc(Cl)ccc23)cc1[N+](=O)[O-]` [Compound 69, 2-[(N-Oxide 7-chloroquinolin-4-yl)sulfonyl]ethyl-4-methoxy-3-nitrobenzoate], the IC50 came to 13.1 µM in data set [1]; 27.2 µM in data set [2]; 2.74 µM in data set [3]; 19.5 µM in data set [4]; 7.32 µM in data set [5]. The “DNA Synthesis (% positive of cells)” value in data set [6] worked out at 34.45%. Moreover, the “M (Mitosis Phospho-Histone3 (Ser10)), %” value came to 1.61% in data set [7] (1 × IC50 (first value of cell)) and 1.6% in data set [7] (setting [8]).
Consider `Cc1ccc([N+](=O)[O-])c(C(=O)OCCS(=O)(=O)c2cc[n+]([O-])c3cc(Cl)ccc23)c1` [Compound 70, 2-[(N-Oxide 7-chloroquinolin-4-yl)sulfonyl]ethyl-5-methyl-2-nitrobenzoate], for which the IC50 is 11.5 µM in data set [1]; 25.7 µM in data set [2]; 6.47 µM in data set [3]; > 50 µM in data set [4]; 6.89 µM in data set [5]. Further, the “DNA Synthesis (% positive of cells)” value in data set [6] was 35.58%. The “M (Mitosis Phospho-Histone3 (Ser10)), %” value came to 1.57% in data set [7] (1 × IC50 (first value of cell)) and 1.08% in data set [7] (setting [8]).
In the case of `O=C(OCCS(=O)(=O)c1cc[n+]([O-])c2cc(Cl)ccc12)c1ccc(C(F)(F)F)cc1` [Compound 72, 2-[(N-Oxide 7-chloroquinolin-4-yl)sulfonyl]ethyl-4-(trifluoromethyl)benzoate], the IC50 in data set [1] was 17.3 µM; in data set [2] it was 28.7 µM; in data set [3], 13.9 µM; in data set [4], 27 µM; in data set [5] it was 6.06 µM. In addition, the “DNA Synthesis (% positive of cells)” value in data set [6] amounted to 27.07%. In addition, the “M (Mitosis Phospho-Histone3 (Ser10)), %” value in data set [7] (1 × IC50 (first value of cell)) was found to be 1.61%; in data set [7] (setting [8]), 5.28%.
